# Literature values, collected in PubChem BioAssay AID1259409 (Chemical Carcinogenesis Research Information System (CCRIS), 2018).
# Tested on: rodent chemically induced tumor inhibition, incidence and multiplicity
# Experiment: CCRIS tumor inhibitor studies
# Conditions: Dose [Inhibitor]: 0, Promoter: NONE USED
compound,measurement,setting,value
C=C(C)[C@H]1CC=C(C)CC1,"tumour outcome (control, treated, inhibition, significance)","Carcinogen: METHYLCHOLANTHRENE, 56-49-5, 0.5 ML 1/WK FOR 1 YR BEGINNING POST CARCINOGEN TREATMENT (STUDY DURATION: 24 MO), Route [Inhibitor]: GAVAGE, Species: MOUSE, Strain/Sex: SWISS/MALE, Target Tissue: Type of Lesion: SKIN: SARCOMA AND CARCINOMA, Dose [Carcinogen]: 0.01 MG ON D 1, 7, 14 AND 21 AFTER BIRTH","5/13 (38%), 2/14 (14%), 63%, not calculated"
same,"tumour outcome (control, treated, inhibition, significance)","Carcinogen: METHYLCHOLANTHRENE, 56-49-5, 0.5 ML 1/WK FOR 1 YR BEGINNING POST CARCINOGEN TREATMENT (STUDY DURATION: 24 MO), Route [Inhibitor]: GAVAGE, Species: MOUSE, Strain/Sex: SWISS/MALE, Target Tissue: Type of Lesion: SPLEEN: LYMPHOMA, Dose [Carcinogen]: 0.01 MG ON D 1, 7, 14 AND 21 AFTER BIRTH","2/13 (15%), 3/14 (21%), -40%, not calculated"
same,"tumour outcome (control, treated, inhibition, significance)","Carcinogen: N-ETHYL-N-HYDROXYETHYLNITROSAMINE, 13147-25-6, 150 MG/KG/D IN CORN OIL 5 D/WK FOR 30 WK BEGINNING POST CARCINOGEN TREATMENT (STUDY DURATION: 32 WK), Route [Inhibitor]: GAVAGE, Species: RAT, Strain/Sex: F344/MALE, Target Tissue: Type of Lesion: LIVER: TUMOR, Dose [Carcinogen]: 500 PPM IN DRINKING WATER FOR 2 WK","26/30 (87%), 17/31 (55%), 37%, p<0.01"
same,"tumour outcome (control, treated, inhibition, significance)","Carcinogen: N-NITROSOMETHYLUREA, 684-93-5, 5% IN DIET BEGINNING 1 WK POST CARCINOGEN TREATMENT AND CONTINUING FOR DURATION OF STUDY (STUDY DURATION: 23 WK), Route [Inhibitor]: ORAL, Species: RAT, Strain/Sex: WISTAR/FEMALE, Target Tissue: Type of Lesion: MAMMARY GLAND: TUMOR, Dose [Carcinogen]: 50 MG/KG ONCE","80%, 50%, 38%, p<0.001"
same,"tumour outcome (control, treated, inhibition, significance)","Carcinogen: N-NITROSOMETHYLUREA, 684-93-5, 5% IN DIET BEGINNING 2 WK PRIOR TO CARCINOGEN TREATMENT AND CONTINUING FOR DURATION OF STUDY (STUDY DURATION: 23 WK), Route [Inhibitor]: ORAL, Species: RAT, Strain/Sex: WISTAR/FEMALE, Target Tissue: Type of Lesion: MAMMARY GLAND: TUMOR, Dose [Carcinogen]: 50 MG/KG ONCE","80%, 45%, 47%, p<0.001"
same,"tumour outcome (control, treated, inhibition, significance)","Carcinogen: N-NITROSOMETHYLUREA, 684-93-5, 5% IN DIET FOR 2 WK PRIOR TO AND 1 WK POST CARCINOGEN TREATMENT (STUDY DURATION: 23 WK), Route [Inhibitor]: ORAL, Species: RAT, Strain/Sex: WISTAR/FEMALE, Target Tissue: Type of Lesion: MAMMARY GLAND: TUMOR, Dose [Carcinogen]: 50 MG/KG ONCE","80%, 74%, 8%, not significant"
same,"tumour outcome (control, treated, inhibition, significance)","Carcinogen: SAFROLE, 94-59-7, 0.5 ML 1/WK FOR 1 YR BEGINNING POST CARCINOGEN TREATMENT (STUDY DURATION: 24 MO), Route [Inhibitor]: GAVAGE, Species: MOUSE, Strain/Sex: SWISS/FEMALE, Target Tissue: Type of Lesion: LUNG: PAPILLARY ADENOCARCINOMA, Dose [Carcinogen]: 0.2 MG ON D 1 AND 7 AFTER BIRTH THEN 0.4 MG ON D 14 AND 21","3/18 (17%), 2/19 (11%), 35%, not calculated"
same,"tumour outcome (control, treated, inhibition, significance)","Carcinogen: SAFROLE, 94-59-7, 0.5 ML 1/WK FOR 1 YR BEGINNING POST CARCINOGEN TREATMENT (STUDY DURATION: 24 MO), Route [Inhibitor]: GAVAGE, Species: MOUSE, Strain/Sex: SWISS/FEMALE, Target Tissue: Type of Lesion: SKIN: SARCOMA, Dose [Carcinogen]: 0.2 MG ON D 1 AND 7 AFTER BIRTH THEN 0.4 MG ON D 14 AND 21","2/18 (11%), 0/19 (0%), 100%, not calculated"
same,"tumour outcome (control, treated, inhibition, significance)","Carcinogen: SAFROLE, 94-59-7, 0.5 ML 1/WK FOR 1 YR BEGINNING POST CARCINOGEN TREATMENT (STUDY DURATION: 24 MO), Route [Inhibitor]: GAVAGE, Species: MOUSE, Strain/Sex: SWISS/MALE, Target Tissue: Type of Lesion: LIVER: HEPATOCELLULAR CARCINOMA, Dose [Carcinogen]: 0.2 MG ON D 1 AND 7 AFTER BIRTH THEN 0.4 MG ON D 14 AND 21","7/24 (29%), 0/24 (0%), 100%, p<0.005"
same,"tumour outcome (control, treated, inhibition, significance)","Carcinogen: SAFROLE, 94-59-7, 0.5 ML 1/WK FOR 1 YR BEGINNING POST CARCINOGEN TREATMENT (STUDY DURATION: 24 MO), Route [Inhibitor]: GAVAGE, Species: MOUSE, Strain/Sex: SWISS/MALE, Target Tissue: Type of Lesion: LUNG: PAPILLARY ADENOCARCINOMA, Dose [Carcinogen]: 0.2 MG ON D 1 AND 7 AFTER BIRTH THEN 0.4 MG ON D 14 AND 21","5/24 (21%), 1/24 (4%), 81%, not calculated"
same,"tumour outcome (control, treated, inhibition, significance)","Carcinogen: SAFROLE, 94-59-7, 0.5 ML 1/WK FOR 1 YR BEGINNING POST CARCINOGEN TREATMENT (STUDY DURATION: 24 MO), Route [Inhibitor]: GAVAGE, Species: MOUSE, Strain/Sex: SWISS/MALE, Target Tissue: Type of Lesion: SKIN: SARCOMA, Dose [Carcinogen]: 0.2 MG ON D 1 AND 7 AFTER BIRTH THEN 0.4 MG ON D 14 AND 21","2/24 (8%), 0/24 (0%), 100%, not calculated"
same,"tumour outcome (control, treated, inhibition, significance)","Carcinogen: SAFROLE, 94-59-7, 0.5 ML 1/WK FOR 1 YR BEGINNING POST CARCINOGEN TREATMENT (STUDY DURATION: 24 MO), Route [Inhibitor]: GAVAGE, Species: MOUSE, Strain/Sex: SWISS/MALE, Target Tissue: Type of Lesion: SPLEEN: LYMPHOMA, Dose [Carcinogen]: 0.2 MG ON D 1 AND 7 AFTER BIRTH THEN 0.4 MG ON D 14 AND 21","6/24 (25%), 1/24 (4%), 84%, not calculated"
same,"tumour outcome (control, treated, inhibition, significance)","Carcinogen: SAFROLE, 94-59-7, 0.5 ML 1/WK FOR 1 YR BEGINNING POST CARCINOMA TREATMENT (STUDY DURATION: 24 MO), Route [Inhibitor]: GAVAGE, Species: MOUSE, Strain/Sex: SWISS/FEMALE, Target Tissue: Type of Lesion: SPLEEN: LYMPHOMA, Dose [Carcinogen]: 0.2 MG ON D 1 AND 7 AFTER BIRTH THEN 0.4 MG ON D 14 AND 21","9/18 (50%), 2/19 (11%), 78%, not calculated"
same,"tumour outcome (control, treated, inhibition, significance)","Carcinogen: TANNIC ACID, 1401-55-4, 0.5 ML 1/WK FOR 1 YR BEGINNING POST CARCINOGEN TREATMENT (STUDY DURATION: 24 MO), Route [Inhibitor]: GAVAGE, Species: MOUSE, Strain/Sex: SWISS/FEMALE, Target Tissue: Type of Lesion: LUNG: PAPILLARY ADENOCARCINOMA, Dose [Carcinogen]: 25 MG/KG BW ON D 1, 7, 14 AND 21 AFTER BIRTH","2/8 (25%), 0/9 (0%), 100%, not calculated"
same,"tumour outcome (control, treated, inhibition, significance)","Carcinogen: TANNIC ACID, 1401-55-4, 0.5 ML 1/WK FOR 1 YR BEGINNING POST CARCINOGEN TREATMENT (STUDY DURATION: 24 MO), Route [Inhibitor]: GAVAGE, Species: MOUSE, Strain/Sex: SWISS/FEMALE, Target Tissue: Type of Lesion: SPLEEN: LYMPHOMA, Dose [Carcinogen]: 25 MG/KG BW ON D 1, 7, 14 AND 21 AFTER BIRTH","4/8 (50%), 3/9 (33%), 34%, not calculated"
same,"tumour outcome (control, treated, inhibition, significance)","Carcinogen: TANNIC ACID, 1401-55-4, 0.5 ML 1/WK FOR 1 YR BEGINNING POST CARCINOGEN TREATMENT (STUDY DURATION: 24 MO), Route [Inhibitor]: GAVAGE, Species: MOUSE, Strain/Sex: SWISS/MALE, Target Tissue: Type of Lesion: LUNG: PAPILLARY ADENOCARCINOMA, Dose [Carcinogen]: 25 MG/KG BW ON D 1, 7, 14 AND 21 AFTER BIRTH","3/12 (25%), 0/12 (0%), 100%, not calculated"
same,"tumour outcome (control, treated, inhibition, significance)","Carcinogen: TANNIC ACID, 1401-55-4, 0.5 ML 1/WK FOR 1 YR BEGINNING POST CARCINOGEN TREATMENT (STUDY DURATION: 24 MO), Route [Inhibitor]: GAVAGE, Species: MOUSE, Strain/Sex: SWISS/MALE, Target Tissue: Type of Lesion: SPLEEN: LYMPHOMA, Dose [Carcinogen]: 25 MG/KG BW ON D 1, 7, 14 AND 21 AFTER BIRTH","5/12 (42%), 3/12 (25%), 40%, not calculated"
